These results are taken from PubChem BioAssay (NCI).

Values joined by “and” are separate entries in the source; they are usually repeats but may differ in a detail not shown here. Equal values may be shown once.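 These data come from cells grown in 96-well plates and exposed to compound for 48 hours at five concentrations. GI50 marks 50% less growth. TGI: concentration producing complete growth inhibition.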

One assay relates to T-47D breast. Kind of assay: NCI-60 cell line screen, 48 h.
As for `C#Cc1cnc(=O)n(C2CC(O)C(CO)O2)c1` (configuration not stated), the GI50 was > 100 µM and the TGI is > 100 µM.

In the case of `COc1c(C2CC(=O)Nc3c2cnn3Cc2ccco2)cc2c(c1OC)OCO2` (configuration not stated), the GI50 is 0.45 µM and the TGI is > 100 µM.

Turning to `O=C(c1cccs1)c1c(C(F)(F)F)n([O-])c2ccccc2[n+]1=O`, the GI50 was 4.38 µM and the TGI amounted to 11.2 µM.

`CC(CO)(CO)N=Cc1cc(I)cc(I)c1O`: the TGI is > 100 µM.

As for `CCN1CCN(c2nc(NCCCNc3ccnc4cc(Cl)ccc34)c3ccccc3n2)CC1`, the GI50 is 1.87 µM and the TGI came out at 5.5 µM.

Turning to `CC1(C)N=C(N)N=C(N)N1c1ccc(CCCCc2ccc(S(=O)(=O)F)cc2)cc1`, the GI50 is 2.09 µM and the TGI turned out to be 10.3 µM.

As for `COc1cc(C(=O)NC2c3ccccc3-c3ccccc32)c(N)cc1OCc1ccccc1`, the GI50 is 29.5 µM and the TGI was > 100 µM.

Regarding `Oc1ccccc1/C=N/Nc1ccc2ccccc2n1`, the GI50 is 3.83 µM and the TGI is > 100 µM.

`COc1ccc(C(=S)N2CCN(c3cccc(Cl)c3)CC2)cc1`: the GI50 was 65.8 µM and the TGI was > 100 µM.

Take `CSc1nc(SC)c2c(CN=[N+]=[N-])c(Br)n(Cc3ccccc3)c2n1`: the TGI was > 100 µM.

Take `Clc1ccccc1C(c1ccccc1)(c1ccccc1)n1ccnc1`: the GI50 was 2.3 µM; the TGI was 14.5 µM and 30.4 µM.

On to `CCCCCCCCCCCCCC(=S)NCCCC[C@H](NC(=O)OCc1ccccc1)C(=O)Nc1ccccc1`, for which the GI50 is 4.52 µM and the TGI was > 100 µM.

In the case of `C=C1CCC2C(/C=C(\C)CCC1O)OC(=O)C2C` (configuration not stated), the GI50 was > 100 µM and the TGI is > 100 µM.

With `CC(C)(C)c1cc(O)c(O)c(C(C)(C)C)c1`, the GI50 is 2.36 µM and the TGI was found to be 5.02 µM.

Take `O=c1cc(-c2cccc(F)c2)[nH]c2cc3c(cc12)OCO3`: the TGI is > 100 µM.

Take `CN1CCN(CC#Cc2cccc(C(=O)c3cnn(-c4ccc(F)cc4)c3N)c2)CC1`: the GI50 is > 25 µM and the TGI was > 25 µM.

In a further assay the test system is M14 melanoma. In words: NCI-60 cell line screen, 48 h.
For the compound `C#Cc1cnc(=O)n(C2CC(O)C(CO)O2)c1` (configuration not stated), the GI50 was > 100 µM and the TGI is > 100 µM.

As for `COc1c(C2CC(=O)Nc3c2cnn3Cc2ccco2)cc2c(c1OC)OCO2` (configuration not stated), the GI50 is 0.408 µM and the TGI is > 100 µM.

`O=C(c1cccs1)c1c(C(F)(F)F)n([O-])c2ccccc2[n+]1=O`: the GI50 was 0.771 µM and the TGI came out at 1.58 µM.

Regarding `CC(CO)(CO)N=Cc1cc(I)cc(I)c1O`, the TGI was 39.3 µM.

For `CCN1CCN(c2nc(NCCCNc3ccnc4cc(Cl)ccc34)c3ccccc3n2)CC1`, the GI50 was 1.86 µM and the TGI amounted to 3.63 µM.

Turning to `CC1(C)N=C(N)N=C(N)N1c1ccc(CCCCc2ccc(S(=O)(=O)F)cc2)cc1`, the GI50 is 1.16 µM and the TGI stood at 23.3 µM.

Consider `COc1cc(C(=O)NC2c3ccccc3-c3ccccc32)c(N)cc1OCc1ccccc1`, for which the GI50 is 47 µM and the TGI was > 100 µM.

For `Oc1ccccc1/C=N/Nc1ccc2ccccc2n1`, the GI50 was 3.65 µM and the TGI is > 100 µM.

For `COc1ccc(C(=S)N2CCN(c3cccc(Cl)c3)CC2)cc1`, the GI50 was > 100 µM and the TGI was > 100 µM.

`CSc1nc(SC)c2c(CN=[N+]=[N-])c(Br)n(Cc3ccccc3)c2n1`: the TGI is > 100 µM.

On to `Clc1ccccc1C(c1ccccc1)(c1ccccc1)n1ccnc1`, for which the GI50 is 2.23 µM; the TGI is 5.46 µM and 29.8 µM.

Take `CCCCCCCCCCCCCC(=S)NCCCC[C@H](NC(=O)OCc1ccccc1)C(=O)Nc1ccccc1`: the GI50 is 4.66 µM and the TGI is > 100 µM.

Consider `C=C1CCC2C(/C=C(\C)CCC1O)OC(=O)C2C` (configuration not stated), for which the GI50 is > 100 µM and the TGI is > 100 µM.

As to `CC(C)(C)c1cc(O)c(O)c(C(C)(C)C)c1`, the GI50 is 3.91 µM and the TGI was 13.8 µM.

As for `O=c1cc(-c2cccc(F)c2)[nH]c2cc3c(cc12)OCO3`, the GI50 was 0.286 µM; the TGI is 75 µM and 23.8 µM.

Consider `CN1CCN(CC#Cc2cccc(C(=O)c3cnn(-c4ccc(F)cc4)c3N)c2)CC1`, for which the GI50 was > 25 µM and the TGI is > 25 µM.

In the next assay the test system is HOP-62 NSCLC. Kind of assay: NCI-60 cell line screen, 48 h.
With `C#Cc1cnc(=O)n(C2CC(O)C(CO)O2)c1` (configuration not stated), the GI50 was > 100 µM and the TGI is > 100 µM.

In the case of `COc1c(C2CC(=O)Nc3c2cnn3Cc2ccco2)cc2c(c1OC)OCO2` (configuration not stated), the GI50 is 1.79 µM and the TGI was > 100 µM.

With `O=C(c1cccs1)c1c(C(F)(F)F)n([O-])c2ccccc2[n+]1=O`, the GI50 was 0.376 µM and the TGI is 1.24 µM.

`CC(CO)(CO)N=Cc1cc(I)cc(I)c1O` had a TGI of 25 µM.

`CCN1CCN(c2nc(NCCCNc3ccnc4cc(Cl)ccc34)c3ccccc3n2)CC1`: the GI50 was 1.79 µM and the TGI was found to be 4.91 µM.

Consider `CC1(C)N=C(N)N=C(N)N1c1ccc(CCCCc2ccc(S(=O)(=O)F)cc2)cc1`, for which the GI50 is 3.86 µM and the TGI is 20.1 µM.

Consider `COc1cc(C(=O)NC2c3ccccc3-c3ccccc32)c(N)cc1OCc1ccccc1`, for which the GI50 was 10.6 µM and the TGI worked out at 38.4 µM.

As to `Oc1ccccc1/C=N/Nc1ccc2ccccc2n1`, the GI50 is 7.09 µM and the TGI was 44.7 µM.

Take `COc1ccc(C(=S)N2CCN(c3cccc(Cl)c3)CC2)cc1`: the GI50 is > 100 µM and the TGI is > 100 µM.

As for `CSc1nc(SC)c2c(CN=[N+]=[N-])c(Br)n(Cc3ccccc3)c2n1`, the TGI is > 100 µM.

With `Clc1ccccc1C(c1ccccc1)(c1ccccc1)n1ccnc1`, the GI50 is 2.99 µM; the TGI is 12.5 µM and 26.6 µM.

Take `CCCCCCCCCCCCCC(=S)NCCCC[C@H](NC(=O)OCc1ccccc1)C(=O)Nc1ccccc1`: the GI50 was 16 µM and the TGI was > 100 µM.

Take `C=C1CCC2C(/C=C(\C)CCC1O)OC(=O)C2C` (configuration not stated): the GI50 was > 100 µM and the TGI was > 100 µM.

`CC(C)(C)c1cc(O)c(O)c(C(C)(C)C)c1`: the GI50 was 8.96 µM and the TGI amounted to 29 µM.

`O=c1cc(-c2cccc(F)c2)[nH]c2cc3c(cc12)OCO3` came in with a TGI of 21.3 µM.

For `CN1CCN(CC#Cc2cccc(C(=O)c3cnn(-c4ccc(F)cc4)c3N)c2)CC1`, the GI50 was > 25 µM and the TGI is > 25 µM.

In another assay the test system is MALME-3M melanoma. In words: NCI-60 cell line screen, 48 h.
On to `C#Cc1cnc(=O)n(C2CC(O)C(CO)O2)c1` (configuration not stated), for which the GI50 is > 100 µM and the TGI is > 100 µM.

`COc1c(C2CC(=O)Nc3c2cnn3Cc2ccco2)cc2c(c1OC)OCO2` (configuration not stated): the GI50 was 0.441 µM and the TGI was > 100 µM.

With `O=C(c1cccs1)c1c(C(F)(F)F)n([O-])c2ccccc2[n+]1=O`, the GI50 was 0.85 µM and the TGI amounted to 2.53 µM.

Regarding `CC(CO)(CO)N=Cc1cc(I)cc(I)c1O`, the TGI is 28.5 µM.

For the compound `CCN1CCN(c2nc(NCCCNc3ccnc4cc(Cl)ccc34)c3ccccc3n2)CC1`, the GI50 was 1.78 µM and the TGI was found to be 3.45 µM.

Take `CC1(C)N=C(N)N=C(N)N1c1ccc(CCCCc2ccc(S(=O)(=O)F)cc2)cc1`: the GI50 was 12.2 µM and the TGI was 32.4 µM.

With `COc1cc(C(=O)NC2c3ccccc3-c3ccccc32)c(N)cc1OCc1ccccc1`, the GI50 is 26.6 µM and the TGI is > 76.6 µM.

With `Oc1ccccc1/C=N/Nc1ccc2ccccc2n1`, the GI50 was 8.18 µM and the TGI is > 100 µM.

Consider `COc1ccc(C(=S)N2CCN(c3cccc(Cl)c3)CC2)cc1`, for which the GI50 was > 100 µM and the TGI was > 100 µM.

Consider `CSc1nc(SC)c2c(CN=[N+]=[N-])c(Br)n(Cc3ccccc3)c2n1`, for which the TGI was > 100 µM.

Take `Clc1ccccc1C(c1ccccc1)(c1ccccc1)n1ccnc1`: the GI50 is 1.74 µM; the TGI was 7.24 µM and 16.9 µM.

Take `CCCCCCCCCCCCCC(=S)NCCCC[C@H](NC(=O)OCc1ccccc1)C(=O)Nc1ccccc1`: the GI50 was 7.41 µM and the TGI is > 100 µM.

Consider `C=C1CCC2C(/C=C(\C)CCC1O)OC(=O)C2C` (configuration not stated), for which the GI50 is > 100 µM and the TGI was > 100 µM.

Consider `CC(C)(C)c1cc(O)c(O)c(C(C)(C)C)c1`, for which the GI50 is 3.13 µM and the TGI was found to be 9.71 µM.

As to `O=c1cc(-c2cccc(F)c2)[nH]c2cc3c(cc12)OCO3`, the TGI is > 72 µM.

`CN1CCN(CC#Cc2cccc(C(=O)c3cnn(-c4ccc(F)cc4)c3N)c2)CC1`: the GI50 is > 25 µM and the TGI was > 25 µM.

A further assay deals with ACHN renal. Kind of assay: NCI-60 cell line screen, 48 h.
Turning to `C#Cc1cnc(=O)n(C2CC(O)C(CO)O2)c1` (configuration not stated), the GI50 is > 100 µM and the TGI was > 100 µM.

As for `COc1c(C2CC(=O)Nc3c2cnn3Cc2ccco2)cc2c(c1OC)OCO2` (configuration not stated), the GI50 is 0.833 µM and the TGI was > 100 µM.

In the case of `O=C(c1cccs1)c1c(C(F)(F)F)n([O-])c2ccccc2[n+]1=O`, the GI50 was 0.417 µM and the TGI came to 1.09 µM.

For the compound `CC(CO)(CO)N=Cc1cc(I)cc(I)c1O`, the TGI amounted to 69.9 µM.

Turning to `CCN1CCN(c2nc(NCCCNc3ccnc4cc(Cl)ccc34)c3ccccc3n2)CC1`, the GI50 is 2.04 µM and the TGI came to 4.54 µM.

As to `CC1(C)N=C(N)N=C(N)N1c1ccc(CCCCc2ccc(S(=O)(=O)F)cc2)cc1`, the GI50 is 4.68 µM and the TGI is > 100 µM.

`COc1cc(C(=O)NC2c3ccccc3-c3ccccc32)c(N)cc1OCc1ccccc1`: the GI50 was 23 µM and the TGI is > 92.3 µM.

For the compound `Oc1ccccc1/C=N/Nc1ccc2ccccc2n1`, the GI50 was 2.86 µM and the TGI came out at 68.6 µM.

On to `COc1ccc(C(=S)N2CCN(c3cccc(Cl)c3)CC2)cc1`, for which the GI50 is > 100 µM and the TGI was > 100 µM.

With `CSc1nc(SC)c2c(CN=[N+]=[N-])c(Br)n(Cc3ccccc3)c2n1`, the TGI is > 100 µM.

As to `Clc1ccccc1C(c1ccccc1)(c1ccccc1)n1ccnc1`, the GI50 is 2.87 µM; the TGI was 13.1 µM and 25.6 µM.

With `CCCCCCCCCCCCCC(=S)NCCCC[C@H](NC(=O)OCc1ccccc1)C(=O)Nc1ccccc1`, the GI50 is 3.15 µM and the TGI turned out to be 19.7 µM.

Regarding `C=C1CCC2C(/C=C(\C)CCC1O)OC(=O)C2C` (configuration not stated), the GI50 is > 100 µM and the TGI is > 100 µM.

For `CC(C)(C)c1cc(O)c(O)c(C(C)(C)C)c1`, the GI50 was 2.15 µM and the TGI stood at 4.13 µM.

For the compound `O=c1cc(-c2cccc(F)c2)[nH]c2cc3c(cc12)OCO3`, the GI50 was 0.432 µM; the TGI was 75 µM and > 59.5 µM.

On to `CN1CCN(CC#Cc2cccc(C(=O)c3cnn(-c4ccc(F)cc4)c3N)c2)CC1`, for which the GI50 is > 25 µM and the TGI is > 25 µM.
